How the values were obtained:
Assay type in all cases: in vivo
Setaria faberi (SETFA) [1] = assay: Pre-emergence Test (glasshouse, percentage damage to the plant); conditions: 1000 g/ha unless otherwise stated, five-point scale
[2] = test system: Echinochloa crus-galli (ECHCG); assay: as above; conditions: 1000 g/ha unless otherwise stated, five-point scale
[3] = test system: Ipomoea hederacea (IPOHE); assay: as above; conditions: 1000 g/ha unless otherwise stated, five-point scale
[4] = test system: Amaranthus retoflexus (AMARE); assay: as above; conditions: 1000 g/ha unless otherwise stated, five-point scale
Zea mays (ZEAMX) [5] = assay: as above; conditions: 1000 g/ha unless otherwise stated, five-point scale
[6] = test system: Abutilon theophrasti (ABUTH); assay: as above; conditions: 1000 g/ha unless otherwise stated, five-point scale
[7] = test system: Amaranthus retoflexus (AMARE); assay: Post-emergence Test (glasshouse, percentage damage to the plant); conditions: post-emergence spray, 1000 g/ha unless otherwise stated, evaluated after 13 days
In short: (§1)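 Percentage damage to the plant, assessed 13 days after application and scored 1–5 in 20% bands. Pots sown in standard soil received compound at 1000 g/ha unless otherwise stated, sprayed under 24/16 °C, 14 h light, 65% humidity.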

[8] = test system: Ipomoea hederacea (IPOHE); assay: as above; conditions: post-emergence spray, 1000 g/ha unless otherwise stated, evaluated after 13 days
In short: (§2)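 Spray treatment of sown glasshouse pots at 1000 g/ha (default rate), vehicle acetone/water 50:50 plus 0.5% Tween 20. Read-out: percentage damage after 13 days, converted to a score where 5 denotes 81-100% and 1 denotes 0-20%.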

[9] = test system: Abutilon theophrasti (ABUTH); assay: as above; conditions: post-emergence spray, 1000 g/ha unless otherwise stated, evaluated after 13 days
In short: as §1

[10] = test system: Echinochloa crus-galli (ECHCG); assay: as above; conditions: post-emergence spray, 1000 g/ha unless otherwise stated, evaluated after 13 days
In short: as §1

Setaria faberi (SETFA) [11] = assay: as above; conditions: post-emergence spray, 1000 g/ha unless otherwise stated, evaluated after 13 days
In short: as §2

Zea mays (ZEAMX) [12] = assay: as above; conditions: post-emergence spray, 1000 g/ha unless otherwise stated, evaluated after 13 days
In short: as §2

| SMILES | percentage damage to the plant, SETFA (Setaria faberi (SETFA) [1]) | percentage damage to the plant, ECHCG [2] | percentage damage to the plant, IPOHE [3] | percentage damage to the plant, AMARE [4] | percentage damage to the plant, ZEAMX (Zea mays (ZEAMX) [5]) | percentage damage to the plant, ABUTH [6] | Post-emergence Test AMARE, percentage damage to the plant (five-point scale) [7] | Post-emergence Test IPOHE, percentage damage to the plant (five-point scale) [8] | Post-emergence Test ABUTH, percentage damage to the plant (five-point scale) [9] | Post-emergence Test ECHCG, percentage damage to the plant (five-point scale) [10] | Post-emergence Test SETFA, percentage damage to the plant (five-point scale) (Setaria faberi (SETFA) [11]) | Post-emergence Test ZEAMX, percentage damage to the plant (five-point scale) (Zea mays (ZEAMX) [12]) |
| --- | --- | --- | --- | --- | --- | --- | --- | --- | --- | --- | --- | --- |
| CCn1c(C)c(-c2cccc(C(C)=O)c2)c(=O)c(C(=O)O)c1-c1ccc(Cl)c(Cl)c1 [Compound 112, 5-(3-acetylphenyl)-2-(3,4-dichlorophenyl)-1-ethyl-6-methyl-4-oxo-pyridine-3-carboxylic acid] | 4 (4=61-80%) | 1 (1=0-20%) | 1 (1=0-20%) | 1 (1=0-20%) | 1 (1=0-20%) | 2 (2=21-40%) | 2 (2=21-40%) | 2 (2=21-40%) | 3 (3=41-60%) | 3 (3=41-60%) | 4 (4=61-80%) | 1 (1=0-20%) |
| CCn1c(C)c(-c2cccc(OC)n2)c(=O)c(C(=O)O)c1-c1ccc(Cl)c(Cl)c1 [Compound 113, 2-(3,4-dichlorophenyl)-1-ethyl-5-(6-methoxy-2-pyridyl)-6-methyl-4-oxo-pyridine-3-carboxylic acid] | 4 (4=61-80%) | 1 (1=0-20%) | 2 (2=21-40%) | 1 (1=0-20%) | 2 (2=21-40%) | 3 (3=41-60%) | 3 (3=41-60%) | 2 (2=21-40%) | 4 (4=61-80%) | 3 (3=41-60%) | 4 (4=61-80%) | 2 (2=21-40%) |
| CCn1c(C)c(-c2cccc(SC)c2)c(=O)c(C(=O)O)c1-c1ccc(Cl)c(Cl)c1 [Compound 114, 2-(3,4-dichlorophenyl)-1-ethyl-6-methyl-5-(3-methylsulfanylphenyl)-4-oxo-pyridine-3-carboxylic acid] | 1 (1=0-20%) | 1 (1=0-20%) | 1 (1=0-20%) | 1 (1=0-20%) | 1 (1=0-20%) | 1 (1=0-20%) | 1 (1=0-20%) | 1 (1=0-20%) | 1 (1=0-20%) | 1 (1=0-20%) | 1 (1=0-20%) | 1 (1=0-20%) |
| CCn1c(C)c(-c2ccc(Cl)cc2)c(=O)c(C(=O)O)c1-c1ccc(F)c(F)c1 [Compound 128, 5-(4-chlorophenyl)-2-(3,4-difluorophenyl)-1-ethyl-6-methyl-4-oxo-pyridine-3-carboxylic acid] | 5 (5=81-100%) | 2 (2=21-40%) | 1 (1=0-20%) | 4 (4=61-80%) | 2 (2=21-40%) | 3 (3=41-60%) | 3 (3=41-60%) | 2 (2=21-40%) | 4 (4=61-80%) | 3 (3=41-60%) | 4 (4=61-80%) | 3 (3=41-60%) |

From patent publication US12660819B2, “Herbicidal derivatives” (SYNGENTA CROP PROTECTION AG, priority 2020, dated 2026)
